The values that follow come from patent US9156796B2, “Benzoimidazole-carboxylic acid amide derivatives as APJ receptor modulators” (SANOFI, priority 2013, dated 2015).

One may read the EC50 as the concentration needed to bring the measured effect to its halfway point.

The assay deals with T1, human apelin receptor (Homo sapiens, UniProt P35414).
T1 construct: expressed in transfected cells
T1 sequence (P35414 1-380): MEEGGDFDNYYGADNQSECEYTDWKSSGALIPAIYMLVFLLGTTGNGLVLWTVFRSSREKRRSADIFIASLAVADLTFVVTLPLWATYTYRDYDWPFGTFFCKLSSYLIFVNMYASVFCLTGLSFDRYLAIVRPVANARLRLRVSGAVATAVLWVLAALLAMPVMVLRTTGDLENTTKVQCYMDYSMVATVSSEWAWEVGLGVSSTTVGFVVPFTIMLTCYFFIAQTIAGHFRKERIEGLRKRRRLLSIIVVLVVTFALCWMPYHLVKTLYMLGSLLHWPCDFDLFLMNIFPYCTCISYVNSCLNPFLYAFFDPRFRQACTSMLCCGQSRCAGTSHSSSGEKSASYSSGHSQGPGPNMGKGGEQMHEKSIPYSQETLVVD
Briefly: Determination of agonism on the human apelin receptor by a calcium fluorescence assay (FLIPR). It counts as cell-based. To be noted: HEK293 cells stably transfected with human apelin receptor and Giaq protein, Fluo-4 calcium fluorescence, read-out: EC50 (APJ agonism). The method in brief: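 Agonist EC50s come from peak intracellular calcium transients recorded by FLIPR Tetra, scaled to the 1 μM apelin-13 maximum per plate. Test system: HEK293 stably transfected with human apelin receptor plus Giaq, Fluo-4-loaded (4 μM, 1 h, 37 °C, pH 7.4 buffer with probenecid); ≥7 concentrations, triplicates.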

Regarding `CCC(CC)n1c(Cc2cccs2)nc2cc(C(=O)N[C@@H](CC(C)C)C(=O)N3CCC(N4CCCC(C)C4)CC3)ccc21` (stereo partly drawn) [Example 281, 1-(1-Ethyl-propyl)-2-thiophen-2-ylmethyl-1H-benzoimidazole-5-carboxylic acid [(S)-3-methyl-1-(3-methyl-[1,4′]bipiperidinyl-1′-carbonyl)-butyl]-amide], the EC50 was found to be 1210 nM.
In the case of `O=C(N[C@@H](CC1CCCCC1)C(=O)O)c1ccc2c(c1)nc(Cc1cccs1)n2C1CCCCC1C(F)(F)F` (stereo partly drawn) [Example 17, (S)-3-Cyclohexyl-2-{[2-thiophen-2-ylmethyl-1-(2-trifluoromethyl-cyclohexyl)-1H-benzoimidazole-5-carbonyl]-amino}-propionic acid], the EC50 came out at 935 nM.
As to `C[C@@H]1CCCC[C@H]1n1c(Cc2cccs2)nc2cc(C(=O)NC(CC3CCCCCC3)C(=O)O)ccc21` (single isomer, unassigned) [Example 451], the EC50 worked out at 1230 nM.
For the compound `CCC(CC)n1c(Cc2cccs2)nc2cc(C(=O)N[C@H](CC(=N)NO)CC(C)C)ccc21` [Example 473, 1-(1-Ethyl-propyl)-2-thiophen-2-ylmethyl-1H-benzoimidazole-5-carboxylic acid [(S)-1-(N-hydroxycarbamimidoylmethyl)-3-methyl-butyl]-amide], the EC50 is 173 nM.
For `C[C@@H]1CCCC[C@H]1n1c(Cc2cccs2)nc2cc(C(=O)NC(CC3CCC(C)(C)CC3)C(=O)O)ccc21` (stereo partly drawn) [Example 33, 3-(4,4-Dimethyl-cyclohexyl)-2-{[1-((1R,2R)-2-methyl-cyclohexyl)-2-thiophen-2-ylmethyl-1H-benzoimidazole-5-carbonyl]-amino}-propionic acid] the value was 3210 nM; for `CCCCC(CC(=O)O)NC(=O)c1ccc2c(c1)nc(Cc1cccs1)n2C(CC)CC` (single isomer, unassigned) [Example 452], 49 nM; for `CC(C)C[C@H](NC(=O)c1ccc2c(c1)nc(Cc1cccs1)n2C1CCCCC1C(F)(F)F)C(=O)O` (stereo partly drawn) [Example 87, (S)-4-Methyl-2-{[2-thiophen-2-ylmethyl-1-(2-trifluoromethyl-cyclohexyl)-1H-benzoimidazole-5-carbonyl]-amino}-pentanoic acid], 882 nM.
With `CC(C)C[C@H](NC(=O)c1ccc2c(c1)nc(Cc1cccs1)n2-c1ccccc1Cl)C(=O)O` [Example 165, (S)-2-{[1-(2-Chloro-phenyl)-2-thiophen-2-ylmethyl-1H-benzoimidazole-5-carbonyl]-amino}-4-methyl-pentanoic acid], the EC50 was determined as 1010 nM.
Regarding `CCC(CC)n1c(Cc2ccco2)nc2cc(C(=O)NC(C)(CCSC)C(=O)O)ccc21` (stereo not shown) [Example 14, 2-{[1-(1-Ethyl-propyl)-2-furan-2-ylmethyl-1H-benzoimidazole-5-carbonyl]-amino}-2-methyl-4-methylsulfanyl-butyric acid], the EC50 was 1340 nM.
On to `CCCCC(CC(=O)O)NC(=O)c1ccc2c(c1)nc(Cc1cccs1)n2C(CC)CC` (single isomer, unassigned) [Example 453], for which the EC50 worked out at 781 nM.
Take `CCOCCCNC(=O)[C@H](CC(C)C)NC(=O)c1ccc2c(c1)nc(Cc1cccs1)n2C(CC)CC` [Example 359, 1-(1-Ethyl-propyl)-2-thiophen-2-ylmethyl-1H-benzoimidazole-5-carboxylic acid [(S)-1-(3-ethoxy-propylcarbamoyl)-3-methyl-butyl]-amide]: the concentration giving a half-maximal response (EC50) was 2140 nM.
For `CCC(CC)n1c(Cc2cccs2)nc2cc(C(=O)N[C@@H](CC(C)C)C(=O)NCc3ccc(N(C)C)cc3)ccc21` [Example 266, 1-(1-Ethyl-propyl)-2-thiophen-2-ylmethyl-1H-benzoimidazole-5-carboxylic acid [(S)-1-(4-dimethylamino-benzylcarbamoyl)-3-methyl-butyl]-amide] the value was 2720 nM.
Take `CCC(CC)n1c(Cc2cccs2)nc2cc(C(=O)N[C@@H](CC(C)C)C(=O)N[C@@H](C)c3ccccc3F)ccc21` [Example 262, 1-(1-Ethyl-propyl)-2-thiophen-2-ylmethyl-1H-benzoimidazole-5-carboxylic acid {(S)-1-[(S)-1-(2-fluoro-phenyl)-ethylcarbamoyl]-3-methyl-butyl}-amide]: the EC50 is 4550 nM.
As to `CCCCC(NC(=O)c1ccc2c(c1)nc(Cc1cccs1)n2C(CC)CC)C(C)(C)C(=O)O` (single isomer, unassigned) [Example 468], the EC50 amounted to 719 nM.
To `CCC(CC)n1c(Cc2cccs2)nc2cc(C(=O)N[C@@H](Cc3ccc(Cl)cc3)C(=O)O)ccc21` [Example 20, (S)-3-(4-Chloro-phenyl)-2-{[1-(1-ethyl-propyl)-2-thiophen-2-ylmethyl-1H-benzoimidazole-5-carbonyl]-amino}-propionic acid] belongs 1830 nM.
As for `CCC(CC)n1c(Cc2cccs2)nc2cc(C(=O)N[C@@H](CC(C)C)[C@H](O)CC(=O)O)ccc21` [Example 76, (3R,4S)-4-{[1-(1-Ethyl-propyl)-2-thiophen-2-ylmethyl-1H-benzoimidazole-5-carbonyl]-amino}-3-hydroxy-6-methyl-heptanoic acid], the EC50 was found to be 62 nM.
In the case of `CCC(CC)n1c(Cc2ccc(C)s2)nc2cc(C(=O)N[C@@H](CC(C)C)C(=O)O)ccc21` [Example 119, (S)-2-{[1-(1-Ethyl-propyl)-2-(5-methyl-thiophen-2-ylmethyl)-1H-benzoimidazole-5-carbonyl]-amino}-4-methyl-pentanoic acid], the EC50 stood at 33100 nM.
To `CCC(CC)n1c(Cc2cccs2)nc2cc(C(=O)N[C@@H](CC(C)C)C(=O)N3CCC(N4CCC(C)CC4)C3)ccc21` (stereo partly drawn) [Example 300, 1-(1-Ethyl-propyl)-2-thiophen-2-ylmethyl-1H-benzoimidazole-5-carboxylic acid {(S)-3-methyl-1-[3-(4-methyl-piperidin-1-yl)-pyrrolidine-1-carbonyl]-butyl}-amide] belongs 732 nM; to `CCC(C)NC(=O)[C@H](CC(C)C)NC(=O)c1ccc2c(c1)nc(Cc1cccs1)n2C(CC)CC` (stereo partly drawn) [Example 218, 1-(1-Ethyl-propyl)-2-thiophen-2-ylmethyl-1H-benzoimidazole-5-carboxylic acid ((S)-1-sec-butylcarbamoyl-3-methyl-butyl)-amide], 2010 nM.
As for `CCC(CC)n1c(Cc2cncs2)nc2cc(C(=O)N[C@H](CC(=O)O)CC(C)C)ccc21` [Example 50, (S)-3-{[1-(1-Ethyl-propyl)-2-thiazol-5-ylmethyl-1H-benzoimidazole-5-carbonyl]-amino}-5-methyl-hexanoic acid], the EC50 stood at 205 nM.
Regarding `CC(C)C[C@@H](CC(=O)O)NC(=O)c1ccc2c(c1)nc(Cc1cccs1)n2C1CCCCC1C(F)(F)F` (stereo partly drawn) [Example 102, (S)-5-Methyl-3-{[2-thiophen-2-ylmethyl-1-(2-trifluoromethyl-cyclohexyl)-1H-benzoimidazole-5-carbonyl]-amino}-hexanoic acid], the EC50 is 247 nM.
Consider `CCC(CC)n1c(Cc2cccs2)nc2cc(C(=O)N[C@@H](CC(C)C)C(=O)N3CCC(N(CC)CC)C3)ccc21` (stereo partly drawn) [Example 329, 1-(1-Ethyl-propyl)-2-thiophen-2-ylmethyl-1H-benzoimidazole-5-carboxylic acid [(S)-1-(3-diethylamino-pyrrolidine-1-carbonyl)-3-methyl-butyl]-amide], for which the EC50 worked out at 362 nM.
For `CCC(CC)n1c(Cc2ccsc2)nc2cc(C(=O)N[C@@H](CC(C)C)C(=O)O)ccc21` [Example 117, (S)-2-{[1-(1-Ethyl-propyl)-2-thiophen-3-ylmethyl-1H-benzoimidazole-5-carbonyl]-amino}-4-methyl-pentanoic acid], the EC50 was 419 nM.
For the compound `CCC(CC)n1c(Cc2cccs2)nc2cc(C(=O)N[C@@H](CC(C)C)C(=O)NC3CCOCC3)ccc21` [Example 249, 1-(1-Ethyl-propyl)-2-thiophen-2-ylmethyl-1H-benzoimidazole-5-carboxylic acid [(S)-3-methyl-1-(tetrahydro-pyran-4-ylcarbamoyl)-butyl]-amide], the EC50 was 407 nM.
Turning to `CCCC(CCO)NC(=O)c1ccc2c(c1)nc(Cc1cccs1)n2C(CC)CC` (stereo not shown) [Example 214, 1-(1-Ethyl-propyl)-2-thiophen-2-ylmethyl-1H-benzoimidazole-5-carboxylic acid [1-(2-hydroxy-ethyl)-butyl]-amide], the EC50 turned out to be 926 nM.
To `CCC(CC)n1c(Cc2cccs2)nc2cc(C(=O)N[C@@H](CC(C)C)C(=O)N3CC4CC3CN4CC(C)C)ccc21` (stereo partly drawn) [Example 348, 1-(1-Ethyl-propyl)-2-thiophen-2-ylmethyl-1H-benzoimidazole-5-carboxylic acid [(S)-1-(5-isobutyl-2,5-diaza-bicyclo[2.2.1]heptane-2-carbonyl)-3-methyl-butyl]-amide] belongs 2660 nM; to `CCC(CC)n1c(Cc2ccco2)nc2cc(C(=O)N[C@H](CC(=O)O)CC(C)C)ccc21` [Example 96, (S)-3-{[1-(1-Ethyl-propyl)-2-furan-2-ylmethyl-1H-benzoimidazole-5-carbonyl]-amino}-5-methyl-hexanoic acid], below 41 nM.
Regarding `CCC(CC)n1c(CC2CCCC2)nc2cc(C(=O)N[C@H](CC3CCCCC3)C(=O)O)ccc21` [Example 10, (R)-3-Cyclohexyl-2-[{2-cyclopentylmethyl-1-(1-ethyl-propyl)-1H-benzoimidazole-5-carbonyl]-amino}-propionic acid], the concentration giving a half-maximal response (EC50) worked out at 1700 nM.
